Data set [1] deals with adjuvant induced arthritis. Description: Adjuvant induced arthritis in rats (chronic inflammation accompanied by joint destruction). The conditions noted are these: oral; for Dead/Treated At 21 Days: once daily days 0 through 13; for % Inhibition of Swelling (Primary lesion), Day 14: * significantly different from adjuvant controls. Type of data set: in vivo, rat (Royal Hart, Wistar strain). As for the experimental part: Groups of three Royal Hart, Wistar strain rats weighing 200±10 grams each were injected intradermally in the right hind paw with Freund's adjuvant (dried human tubercle bacilli in a mineral oil vehicle) at a dose of 2 mg./kg. of body weight. Test compound was administered orally in a 1.5% starch vehicle at various doses once daily on days 0 through 13 post challenge. Control rats were treated in a similar manner, but given only starch vehicle. On the 14th and 21st day post challenge the diameter of the injected paw (primary lesion) was measured by micrometer caliper. The volume of inflamed paws were estimated from these measurements and the results are expressed as percent inhibition of swelling as compared to controls. At the same time, the other inflamed sites, such as ears, paws and tail (secondary lesions) were observed and each rat was graded as to degree of inflammation and swelling present. The grading is based on a scale of 0 to 24, where 0 represents a complete absence of induced arthritic nodules and 24 represents the maximum degree of inflammation. The mean grade for each treated group is calculated and the effects of each compound are expressed as percent inhibition of the control grade. Table I records the results of tests conducted with typical compounds of the present invention. These compounds appear to suppress the progression of the arthritis and associated joint deterioration.

The test system of data set [2] is articular cartilage breakdown by arthritic synovial tissue. Description: Synovium-cartilage test (hexoseamine/hydroxyproline ratio of cartilage cultured with arthritic synovium). Type of data set: cell-based, rabbit (New Zealand). The conditions noted are these: Oryctolagus cuniculus; 10 mcg./ml.; 48 hours at 37° C.; mean of 3 or 4 tests; active if average greater than 50%; read-out: Mean % Inhibition (suppression of cartilage breakdown). The procedure:
The compounds of the invention have been tested by the synovium-cartilage test which is a modification of the method described by Dumonde, D. C. and Glynn, L. E., The Production of Arthritis in Rabbits by an Immunological Reaction to Fibrin, Brit. J. Exp. Pathol., 43, 373 (1962).
Male, New Zealand rabbits, weighing 1.6-3.0 kg. were used. The rabbits were housed in individual cages and given food and water ad libitum. The rabbits were sensitized to bovine serum albumin (BSA) by injection of 20 mg./kg. BSA in complete Freund's adjuvant. The emulsion was injected subcutaneously into multiple sites on the back. Total injection volume equaled one […]. of body weight. Between 18 and 21 days following immunization, the rabbits were challenged with an intraarticular injection of 5 mg. BSA into the right knee joint. Unanesthetized animals were restrained on their backs, and a 20-gauge, one-inch needle, with a 5 ml. syringe, was introduced into the joint and synovial fluid aspirated to determine that the synovium had been penetrated. The needle was then left in place for injection of the antigen. A 0.5 ml. portion of 10 mg./ml. BSA in sterile saline was injected into the synovial sac. The rabbits received an additional five intraarticular injections of 5 mg. BSA into the right knee at intervals of 12-16 days. Following the sixth injection the rabbits were sacrificed by an intracardiac injection of 5 ml. of a saturated solution of potassium chloride. The right knee was shaved. A longitudinal incision was made over the patellar ligament and the skin reflected under sterile conditions. The patellar ligament was cut transversely and reflected. Fascia and capsular tissue were trimmed from the lateral and medial aspects of the knee exposing the synovial membrane. The membrane was grasped with forceps, stretched laterally and then excised in a single piece on each side of the knee. The infrapatellar fat pad was removed and the joint space widened by cutting the anterior attachments of the menisci and severing the collateral cruciate ligaments. The femur and tibia were then separated and the menisci excised along with sufficient amounts of synovial tissue from the popliteal area adhering to the menisci. The tissues were immediately placed in a sterile Petri dish containing tissue culture medium composed of MEM (Earle's salts) without sodium bicarbonate,with 25 mM Hepes buffer, pH adjusted to 7.34-7.37, and antibiotics (streptomycin and neomycin, 100 units/ml.). Ten percent normal rabbit serum (NRS) was added. The tissues were rinsed three times in fresh medium plus 10% NRS, then cut into pieces of 20-30 mg.
Articular cartilage was obtained from the knees of normal, young rabbits, weighing 1.0 to 1.5 kg. The knees were shaved, the rabbits sacrificed and the joint exposed as described above. […]

In another data set the test system is arthritic paw swelling. The conditions noted are these: result in words; cited from earlier work.

In the case of `C/C(O)=C(\C#N)C(=O)Oc1cccc(Cl)c1Cl` [2-Cyano-3-hydroxycrotonic acid, 2,3-dichlorophenyl ester], the “Dead/Treated At 21 Days” value in data set [1] (50 mg./kg. body weight) is listed as 11/24. For the same compound, in data set [1] (50 mg./kg.), the “Mean Weight Gain, Day 14” value came out at 36 grams; the “% Inhibition of Swelling (Primary lesion), Day 14” value (“% Inhibition of Swelling … Day 14” below) is recorded as 41%; the “% Inhibition of Swelling (Primary lesion), Day 21” value (“% Inhibition of Swelling … Day 21” for short) was found to be 0%; the “Mean Weight Gain, Day 21” value is 32 grams.
For `C/C(O)=C(\C#N)C(=O)Oc1ccccc1Cl` [2-Cyano-3-hydroxycrotonic acid, o-chlorophenyl ester], the “Dead/Treated At 21 Days” value in data set [1] (50 mg./kg. body weight) was 0/9. In data set [1] (50 mg./kg.), the “Mean Weight Gain, Day 14” value was determined as 25 grams; the “% Inhibition of Swelling … Day 14” value worked out at 57%; the “% Inhibition of Swelling … Day 21” value amounted to 35%; the “Mean Weight Gain, Day 21” value was 29 grams.
Broadly, the inhibition is the relative decrease from the control value, in per cent. Consider `C/C(O)=C(\C#N)C(=O)Oc1ccccc1F` [2-Cyano-3-hydroxycrotonic acid, o-fluorophenyl ester], for which, in data set [2], the inhibition at 10 µg/mL came out at 52.3%.
Consider `COc1ccccc1OC(=O)/C(C#N)=C(/C)O` [2-Cyano-3-hydroxycrotonic acid, o-methoxyphenyl ester], for which the inhibition at 10 µg/mL in data set [2] worked out at 49.3%.
As to `C/C(O)=C(\C#N)C(=O)Oc1ccc(Cl)cc1` [2-Cyano-3-hydroxycrotonic acid, p-chlorophenyl ester], the “Dead/Treated At 21 Days” value in data set [1] (25 mg./kg. body weight) is 2/18. In data set [1] (25 mg./kg.), the “Mean Weight Gain, Day 14” value stood at 60 grams; the “% Inhibition of Swelling … Day 14” value turned out to be 45%; the “% Inhibition of Swelling … Day 21” value is recorded as 0%; the “Mean Weight Gain, Day 21” value is on record as 46 grams.
As to `COc1ccc(OC(=O)/C(C#N)=C(/C)O)cc1` [2-Cyano-3-hydroxycrotonic acid, p-methoxyphenyl ester], in data set [2], the inhibition at 10 µg/mL came out at 58.4%.
For `C/C(O)=C(\C#N)C(=O)Oc1ccc(C)cc1` [2-Cyano-3-hydroxycrotonic acid, p-tolyl ester], the inhibition at 10 µg/mL in data set [2] came to 50.3%.
Consider `COc1ccc2c(c1)c(CC(=O)O)c(C)n2C(=O)c1ccc(Cl)cc1` [indomethacin], for which, in the data set on arthritic paw swelling, the arthritic paw swelling entry is on record as “inhibit arthritic paw swelling”; the “joint and bone deterioration” value was “prevent joint and bone deterioration”.
